Experiment [1] has as its target T1, recombinant GC (Cerezyme) (Homo sapiens, UniProt P04062, R534H).
T1 construct: purchased Genzyme Therapeutics, Boston, USA
T1 sequence (P04062 40-536 R534H): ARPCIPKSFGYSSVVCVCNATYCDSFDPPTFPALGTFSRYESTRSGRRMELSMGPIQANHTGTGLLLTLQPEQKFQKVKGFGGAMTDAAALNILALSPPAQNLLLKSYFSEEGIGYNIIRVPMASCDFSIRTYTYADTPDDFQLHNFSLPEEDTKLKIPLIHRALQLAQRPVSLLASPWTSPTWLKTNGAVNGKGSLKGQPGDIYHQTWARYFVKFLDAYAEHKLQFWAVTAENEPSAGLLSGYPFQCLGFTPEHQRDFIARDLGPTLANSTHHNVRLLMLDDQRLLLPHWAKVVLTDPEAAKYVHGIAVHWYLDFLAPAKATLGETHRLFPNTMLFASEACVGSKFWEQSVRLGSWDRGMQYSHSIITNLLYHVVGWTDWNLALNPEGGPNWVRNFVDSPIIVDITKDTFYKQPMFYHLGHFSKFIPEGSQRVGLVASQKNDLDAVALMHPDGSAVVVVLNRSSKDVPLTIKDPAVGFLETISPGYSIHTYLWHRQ
In words: recombinant GC activity assay. Type of experiment: biochemical. The following applies: tenfold molar excess of peptide, acid pH, relative to buffer control. As for the experimental part:
(§1) Expression plasmids of LIMP-2 and human GC constructs were generated as described previously (1). For Western blotting nitrocellulose or PVDF membranes were used. EndoH/PNGaseF digests were performed according to manufacturer's instructions (New England Biolabs, Ipswich, USA). For co-immunoprecipitation experiments magnetic agarose G beads (Thermo Fisher Scientific, Waltham, USA) were utilized. Immunofluorescence studies were performed in cells as previously described (1, 3). Cellular co-localization of two proteins was determined by the Pearson's Index (35). Enzyme activity assays of cell lysates or recombinant protein were measured at acid pH using absorbent and fluorescent artificial substrates. For peptide studies, peptides were N-terminally tagged with biotin. If not stated otherwise, recombinant enzyme was incubated with a tenfold higher molarity of peptides. Conditions for pulldown experiments were kept at neutral pH. Protein modelling, molecular analyses, graphics and animations were performed with the UCSF Chimera package.
To determine the enzymatic activity of the recombinant enzymes, lyophilized enzymes were reconstituted in the NaPi buffer described above. The lyophilized samples of wild-type GC (Cerezyme®) and the custom-made recombinant N307S mutant enzyme contain 0.01% polysorbate 80 (Tween 80) (see prescription information for Cerezyme® at the website for Cerezyme®). As indicated in our experiments, the concentration of the detergent is sufficient to support active GC enzyme and to perform the in vitro GC activity assays without adding further detergents to the reaction mix. For enzyme activity assays of recombinant proteins, 0.1-0.2 nmol of GC (Cerezyme®; N370S) and LAMAN were used in the absence or presence of 10× the molar amount of LIMP-2-derived peptides (Table 1) or LIMP-2 ectodomain (1-2 nmol) (Table 3).
All activity assays were performed at acid pH.

A further experiment has as its target T2, recombinant GC (Homo sapiens, UniProt P04062, R534H).
T2 construct: purchased Genzyme Therapeutics, Boston, USA
T2 sequence (P04062 40-536 R534H): T1 sequence (P04062 40-536 R534H)
In words: stabilization assay of recombinant GC at 37° C. It counts as biochemical. The following applies: recombinant GC incubated with peptide at 37° C. As for the experimental part:
Proteins were visualized by coomassie staining (CBB). […] See also FIG. 6.
To address the functional impact of the observed interaction between the helix 5 peptide and recombinant GC, we measured GC activity in the presence of a one- to tenfold molar excess of the helix 5 peptide. […] No effect on enzymatic activity after incubation with the helix 5 peptide or the LIMP-2 ectodomain could be found for recombinant α-mannosidase (LAMAN) further emphasizing the specificity of the helix 5 peptide on GC activity (FIG. 6E). […] To analyze if the increase in GC activity is due to stabilization of the enzyme, recombinant GC was incubated with the helix 5 and the control peptide at 37° C. and the activity of GC was measured at regular intervals (FIG. 3F).

Experiment [2] concerns endogenous GC in Cos 7 cells. The following applies: biotinylated peptide, neutral pH.
Experimental: For pulldown of endogenous and overexpressed GC from N2a cell lysates 20 nmol of LIMP-2-derived peptide (Helix 5 and 3×D) was incubated with 50 μl cell lysate at 4° C. overnight. The cells were harvested in EBC-buffer (Table 3). After blocking and equilibration of the streptavidin beads (see above) the cell lysate/peptide mixtures were added to the beads for 30 min. at room temperature. The supernatant was removed. After extensive washing of the beads with NaPhosphate buffer, the bound peptides and proteins were released from the beads by incubation with Laemmli buffer (see above). After centrifugation for 2 min. at 17,000×g the supernatant was removed (BOUND fraction) and subjected to SDS-Page and Western-blotting. An antibody against human GC (α-hGC, for details see Table 4) was used for detection.
For experiment [3], the target named is T1, recombinant GC (Cerezyme). Description: peptide pulldown of recombinant GC. Type of experiment: binding. Conditions: biotinylated peptide, tenfold molar amount, neutral pH, streptavidin beads. As for the experimental part:
as §1
All peptides were purchased from jpt Peptide Technologies (Berlin, GER). […] The concentration of the peptides as well as the recombinant proteins was determined spectroscopically (Nanodrop 2000c; Thermo Fisher Scientific, Waltham, USA). […]

“Biotin-Ttds-KFERQLREDDEAMDKAYQQKLFVTHTVDEYGRKKRRQRRR [control 3×D TAT-peptide, reference compound]”: in experiment [1], the “increase of recombinant GC enzyme activity” value (from here on “increase”) is recorded as “comparable effect”.
For the substance “Biotin-Ttds-LREDDEAMDKAYQQKLFVTHTVDE [3×D control peptide, reference compound]”, at recombinant GC, the “time to complete loss of GC enzymatic activity” value was ≤ 72 h. Further, the “increase” value in experiment [1] was “did not increase”. For the same substance, the “co-precipitation of endogenous GC from cellular lysates” value in experiment [2] is recorded as “only the wild-type helix 5 peptide specifically co-precipitated”. In addition, in experiment [3], the “co-precipitation of recombinant GC” value is listed as “only the wild-type helix 5 peptide specifically co-precipitated”.
On to “KRVQDVIERFWDFIDQLSINTFGK [random helical control peptide, reference compound]”, for which the “increase” value in experiment [1] is recorded as “not able to increase”.

Source of the values: US10286038B2, “Lysosome membrane protein 2 (LIMP-2) based peptides and related uses” (Northwestern University, priority 2016, dated 2019).
